Experimental data reported in patent EP0369810A2, “PAF antagonists as anti-hyperendothelinemia agents” (Takeda Chemical Industries, Ltd., priority 1988, dated 1990).
Like-named read-outs stand apart in the source and are kept apart here. Marks after values point to notes of the source that are not given here.

Legend:
[1] = test system: cultured rat vascular smooth muscle cells; test: Inhibition of endothelin-induced elevation of cytosolic calcium concentration (fura-2 fluorescence); type: cell-based; settings: endothelin 4 x 10-^9 M, read-out: Inhibitory activity (%); for inhibition at 0.4 µM: compound 4 x 10^-7 M; for inhibition at 0.04 µM: compound 4 x 10^-8 M; for inhibition at 4 µM: compound 4 x 10^-6 M
Description: A glass cover slide coated with 4 µM fura-2-loaded cultured rat vascular smooth muscle cells was inserted into a quartz cuvette which contained 2.5 ml HEPES buffer (pH 7.2). On this occasion, the glass cover slide was fixed on a diagonal of 45° to the direction of excitation light. The fluoroscence was measured in a Hitachi F-4000 spectrofluorimeter. Wavelengths were set at 340 nm and 380 nm for excitation and 505 nm for emission. Fmax and Fmin were estimated after addition of ionomycin (2 µM; Calbiochem) as calcium ionophore and EGTA (8 mM) as calcium ion-chelator, respectively. The cytosolic calcium ion concentration [Ca^++]i values were calculated by Tsien et al. formula: [Ca^++]-i = kd*(F-Fmin)/(Fmax-F) with modifications assuming kd = 224 nM, i.e. by the formulas: • [Ca^++]i = kd*(R-Rmin)*Sf2/(Rmax-R)*Sb2 • R = [D(W1)-AutoF1]/[D(W2)-AutoF2] • D(Wi) : Determined value at wavelength for excitation W1 • D(W2) : Determined value at wavelength for excitation W2 • AutoF1 : self-fluoroscence at W1 • AutoF2 self-fluoroscence at W2 • Rmin : R in zero Ca^++ = Fmin (W1)/Fmin (W2) • Rmax : R in Ca^++-saturated concentration = Fmax (W1)/Fmax (W2) • Sf2 : strength of fluoroscence by free Ca^++ at W2 • Sb2 : strength of fluoroscence by bound Ca^++ at W2 The experiments were carried out as follows: PAF antagonists, the compounds [II], [IV] and [Vllla], were added to the solution in the cuvette. Incubation was conducted for 5 minutes and then endothelin (4 x 10-^9 M) was added to observe changes of strength of fluoroscence.

[2] = test system: endothelin; test: Protective effects against arrhythmia-inducing activity of endothelin in rats (electrocardiogram); type: in vivo, rat; settings: anesthetized rats; for PVB counts (15 min.): premature ventricular beats; for VF incidence: ventricular fibrillation; for VT incidence: ventricular tachycardia
Description: Male SD-Jcl rats (9 weeks old) were anesthetized with pentobarbital (50 mg/kg, intraperitoneal injection), and electrocardiogram (Lead II) was monitored on a polygraph. A drug was dissolved in physiological saline and given via the tail vein in a volume of 1 ml/kg. Five minutes later, endothelin (5 nmol/kg) was intravenously administered. In the case of oral administration, a drug was given in 10 ml/kg of 5% gum arabic suspension one hour before the administration of endothelin.

[3] = test system: endothelin; test: Protective effects against endothelin-induced death in mice; type: in vivo; settings: mouse, survival 1 h after endothelin
Description: (§1) Male SD-Jcl rats (5-6 weeks old) and male Jcl-ICR mice (5-6 weeks 01 d) were used without anesthetization.
(§2) Physiological saline or drug-dissolved physiological saline was given via the tail vein to a rat in a volume of 1 ml/kg and to a mouse in a volume of 5 ml/kg. Five minutes later, the same volume of endothelin (Peptide Institute; 5 nmol/kg)-dissolved physiological saline was intravenously given.
(§3) In the case of oral administration of a drug, the drug was given in 10 ml/kg of 5% gum arabic suspension one hour before the administration of endothelin.
(§4) One hour after the administration of endothelin, the survival rates were measured, and the effect of the drug was evaluated.

[4] = Acute toxicities; settings: rat, in vivo
Description: PAF antagonists were administered to male Wistar rats (4-6 weeks old) to observe the acute toxicities.

[5] = test system: endothelin; test: Protective effects against endothelin-induced death in rats; type: in vivo; settings: rat, survival 1 h after endothelin
Description: as §1, §2, §3, §4

[6] = test system: glomerulonephritic rats; test: Antiproteinuric action in glomerulonephritic rats; type: in vivo, rat; settings: urinary excretion; 100 mg/kg p.o. once a day for 4 weeks
Description: Glomerulonephritis in rats was prepared according to the method by Nagamatsu et al. (Folia Pharmacol. Jpn. 78, 491, 1981). The mixture of 3 mg rabbit serum albumin (RSA) and the same amount of complete Freund's adjuvant was prepared. One ml/rat (3 mg/rat) of the mixture was first injected subcutaneously to 5 weeks old Spraque Dawley (Jcl) rats. 2 weeks later, RSA (1 mg/rat) was injected intravenously 3 times a week for 8 weeks. At the point of RSA injection for the first 4 weeks, urine was collected from the rat for 24 hours to measure urinary excretion of albumin and total protein. According to the value of albumin and total protein obtained, the rats were separated into 2 groups of the control and the treatment group. Then, the drug or vehicle was orally given once a day for 4 weeks and the 24 hour-urine at the 4 week of the dosage was collected for measurement of urinary albumin and total protein.

[7] = test system: M-SHRsp; test: Protective action on ischemic cerebral damage in M-SHRsp (bilateral carotid occlusion and reperfusion); type: in vivo, rat; settings: 24 hour reperfusion
Description: Male malignant spontaneously hypertensive rats (M-SHRsp), 8 weeks old, were used. The carotid artery was occluded bilaterally for 1 hour under conscious condition followed by reperfusion for 24 hours. The drug was orally given 1 hour prior to the occlusion of the artery. The survival rate of rats was estimated during the 24 hour reperfusion.

[8] = test system: Male Spraque Dawley (Jcl) rats; test: Effect on acute renal failure in rats (bilateral renal artery occlusion and reperfusion); type: in vivo, rat; settings: oral dose of 30 mg/kg 1 hour prior to occlusion; 45 min occlusion, 20 hours reperfusion
Description: Male Spraque Dawley (Jcl) rats, 5 weeks old, were anesthetized with sodium pentobarbital (50 mg/kg, i.p.) and the renal artery was occluded bilaterally for 45 minutes followed by reperfusion for 20 hours. The blood was collected from the abdominal aorta under anesthesia for measurement of blood urea nitrogen (BUN).

[9] = sustained increase of cytosolic calcium
[10] = transient increase of cytosolic calcium
[11] = 1 mg/kg i.v. 5 min before endothelin 5 nmol/kg i.v.
[12] = 3 mg/kg i.v. 5 min before endothelin 5 nmol/kg i.v.
[13] = 100 mg/kg p.o. 1 h before endothelin 5 nmol/kg i.v.
[14] = 30 mg/kg p.o. 1 h before endothelin 5 nmol/kg i.v.
[15] = 30 mg/kg i.v. 5 min before endothelin 5 nmol/kg i.v.

In the case of `CCCCCCCCCCCCCCCCCCNC(=O)OCC(COC(=O)N(Cc1cccc[n+]1CC)C(C)=O)OC.[Cl-]` (stereo not drawn) [Compd [II], 2-[N-acetyl-N-(2-methoxy-3-octadecylcarbamoyloxypropoxycarbonyl)-aminomethyl]-1-ethylpyridinium chloride], the inhibition at 0.4 µM [1, 9] is reported as 100%, the inhibition at 0.04 µM [1, 9] is reported as 100% and the inhibition at 4 µM [1, 10] is reported as 100%. For the same compound, the inhibition at 0.4 µM [1, 10] was 100%, the “PVB counts (15 min.)” value [2, 11] was 9±8 and the VF incidence [2, 11] was 2/9**. The VT incidence [2, 11] was 3/9**, the “Protective effect to death Survival Rate (%)” value (“Protective effect … (%)” for short) [3, 12] was 100** % and the “Protective effect to death Survival Total” value [3, 12] was 10/10. For the same compound, the LD50 ([4]; iv, male Wistar rats) was > 20 mg/kg, the “Protective effect … (%)” value [5, 12] was 94** % and the “Protective effect to death Survival Total” value [5, 12] was 15/16.
For `COc1cc2c(cc1OC)CCCC(C(=O)N1CCN(C(=O)c3cc(OC)c(OC)c(OC)c3)CC1)=C2` [Compd [IV], 1-(2,3-dimethoxy-6,7-dihydro-5H-benzocycloheptenyl-8-carbonyl)-4-(3,4,5-trimethoxybenzoyl)piperazine], the inhibition at 0.4 µM [1, 9] was 52.6%, the inhibition at 0.4 µM [1, 10] was 76.2% and the “Protective effect … (%)” value [3, 13] was 100** %. For the same compound, the “Protective effect to death Survival Total” value [3, 13] was 15/15, the albumin [6] was 17 ± 11 mg/100 g/24 hr and the total protein [6] was 43 ± 16 mg/100 g/24 hr. For the same compound, the “Survival rate (24 hr)” value ([7]; 1 mg/kg p.o. 1 hour prior to occlusion) was 2/7, the “Survival rate (24 hr)” value ([7]; 10 mg/kg p.o. 1 hour prior to occlusion) was 6/7* and the “Survival rate (24 hr)” value ([7]; 10 mg/kg p.o. 1 hour prior to occlusion, listed as compound [IV]) was 6 out of 7. For the same compound, the “Survival rate (24 hr)” value ([7]; 100 mg/kg p.o. 1 hour prior to occlusion) was 4/4*, the “Survival rate (24 hr)” value ([7]; 100 mg/kg p.o. 1 hour prior to occlusion, listed as compound [IV]) was “all out of 4” and the LD50 ([4]; po) was > 1000 mg/kg.
With `Cc1nnc2n1-c1sc(CCC(=O)N3CCOCC3)cc1C(c1ccccc1Cl)=NC2` [Compd [IX], reference compound] the “PVB counts (15 min.)” value [2, 14] was 12±5, the VF incidence [2, 14] was 4/6** and the VT incidence [2, 14] was 4/6**. The “Protective effect … (%)” value [3, 14] was 53** %, the “Protective effect to death Survival Total” value [3, 14] was 8/15 and the “Protective effect … (%)” value [5, 14] was 40** %. The “Protective effect to death Survival Total” value [5, 14] was 6/15.
In the case of `CCC[n+]1cc(Br)cc(C(=O)N(CCC(=O)NCCOC(=O)N2CCc3ccccc3C2)c2ccccc2)c1` [Compd [VIIIb]], the “Blood urea nitrogen (BUN)” value [8] is reported as 88 ± 2 mg/dL.
With `CCCCCCCCCCCCCCCCCCNC(=O)OCC(COP(=O)([O-])OCC[n+]1ccsc1)OC` (stereo not drawn) [Compd [VI], 3-(N-n-octadenylcarbamoyloxy)-2-methoxypropyl 2-thiazolioethyl phosphate] the “Protective effect … (%)” value [3, 15] was 36* %, the “Protective effect to death Survival Total” value [3, 15] was 5/14 and the LD50 ([4]; iv, male Wistar rats) was > 50 mg/kg.
Compound `CCC[n+]1cc(Br)cc(C(=O)N(CCC(=O)NCCOC(=O)N2CCc3ccccc3C2)c2ccccc2)c1` [[VIIIa]] has an inhibition at 0.4 µM [1, 9] of 100%, an inhibition at 0.04 µM [1, 9] of 72.1% and an inhibition at 4 µM [1, 10] of 78.2%. The inhibition at 0.4 µM [1, 10] was 64.2%.
